Legend:
CaCo-2 cell model = CaCo-2 cell model bioavailability / resorption screening of NASPs with permeation enhancers; assay type: in vitro ADME, human; settings: for Average Percent Resorption at 8 hours: Table 5; for basolateral concentrations in the presence of a gastrointestinal epithelial barrier permeation enhancer: compared with absence of enhancer, figures
Experimental: (§1) The bioavailability of NASPs in combination with gastrointestinal epithelial barrier permeation enhancers of interest were studied using the CaCo-2 cell model screening. This method utilizes a human colon carcinoma cell line that expresses a wide range of transporter proteins on its cell membranes. Cell layers are grown on a membrane surface that separates two compartments (24-well plate). An example of the experimental setup for these experiments is illustrated in FIG. 1. Selected NASP and gastrointestinal epithelial barrier permeation enhancer samples were dissolved in RPMI cell medium at a concentration of 1 mg/mL and applied onto the cells in the apical compartment. Cells were incubated at 37° C. in 5% CO2. Medium samples were removed from the basolateral and apical compartment at different time points. The condition of the cell layer was monitored by measurement of the transepithelial electrical resistance (TEER). Samples were analyzed by thrombin generation assay (CAT). NASP concentration was calculated based on activity from CAT assay. Experimental details of thrombin generation assays and other blood coagulation assays are described in U.S. patent application Ser. No. 11/140,504, filed on May 27, 2005, now U.S. Pat. No. 7,767,654, and U.S. patent application Ser. No. 13/006,396, filed on Jan. 13, 2011, the disclosures of which is herein incorporated by reference.
All NASP and gastrointestinal epithelial barrier permeation enhancer samples were diluted in such a way that the sample concentration was in the range of increasing procoagulant activity. Based on the initial load concentration values, apical and basolateral concentrations were determined at 2 hour increments (e.g., 2 hours, 4 hours, 6 hours, 8 hours, including 24 hours). Based on the determined basolateral concentrations, the percent resorption was determined for each combination of compounds (i.e., NASP and gastrointestinal epithelial barrier permeation enhancers).
FIGS. 4-8 illustrate resorption of some natural NASPs of interest in Caco-2 cell models as determined by TGA and liquid chromatography/mass spectrometry in combination with different gastrointestinal epithelial barrier permeation enhancers. FIGS. 9 and 10 illustrate resorption of some synthetic NASPs of interest in Caco-2 cell models as determined by TGA and liquid chromatography/mass spectrometry in combination with different gastrointestinal epithelial barrier permeation enhancers.

CaCo-2 cell layer = experiment: Condition of the cell layer by transepithelial electrical resistance (TEER) in CaCo-2 screening; assay type: cell-based, human
Experimental: as §1, with “reference. […]” for “reference.”

[1] = Bromelain/Chitosan 0.5 mg/mL: 3%
[2] = in the presence of bromelain at 8 hours
[3] = in the presence of deoxycholate at 8 hours

Substance	Average Percent Resorption at 8 hours (CaCo-2 cell model; Bromelain 0.5 mg/mL)	Average Percent Resorption at 8 hours (CaCo-2 cell model; [1])	Average Percent Resorption at 8 hours (CaCo-2 cell model; Chitosan 3%)	Average Percent Resorption at 8 hours (CaCo-2 cell model; Deoxycholate 0.08%)	Average Percent Resorption at 8 hours (CaCo-2 cell model; No enhancer)	Average Percent Resorption at 8 hours (CaCo-2 cell model; Deoxycholate 0.06%)	Average Percent Resorption at 8 hours (CaCo-2 cell model; Sodium Caprate 12 mM)	basolateral concentrations in the presence of a gastrointestinal epithelial barrier permeation enhancer (CaCo-2 cell model)	resorption in Caco-2 cell models (CaCo-2 cell model; [2])	resorption in Caco-2 cell models (CaCo-2 cell model; in the presence of chitosan)	resorption in Caco-2 cell models (CaCo-2 cell model; [3])	resorption in Caco-2 cell models (CaCo-2 cell model; in the presence of sodium caprate)	transepithelial electrical resistance after removal of the permeation enhancer and the NASP (CaCo-2 cell layer; after removal of enhancer and maltopentaose)	resorption in Caco-2 cell models (CaCo-2 cell model; in the presence of sodium caprate at 8 hours)	transepithelial electrical resistance after treatment with the permeation enhancer alone (CaCo-2 cell layer; enhancer alone, no NASP)
Sulfated 6-Carboxyicodextrin [Sulfated 6-Carboxyicodextrin 14 kD]	17.7%	44.5%	5.4%	27.2%	3.8%										
Sulfated 6-Carboxyicodextrin [Sulfated 6-Carboxyicodextrin 24 kD]	10.0%	36.8%	2.6%	14.7%	1.6%	4.9%									
Sulfated Maltopentose	48.6%	158.8%	35.7%	113.2%	0%	67.4%	13.1%	increased	increased substantially	strong increased resorption	increased substantially	strong increased resorption	increased		
Sulfated β-cyclodextrin	24.7%	59.8%	15.6%	36.1%	0%	20.6%	19.3%	increased	increased substantially		increased substantially			increased substantially	
bromelain															recovery of the transepithelial electrical resistance

Reference: US8846620B2, “Resorption enhancers as additives to improve the oral formulation of non-anticoagulant sulfated polysaccharides” (Baxter International Inc., priority 2011, dated 2014)
